This experiment relates to A-549 cells. Description: cell cycle distribution analysis, PI flow cytometry. Conditions: 5 μM, 24 h. The format is cell-based. As for the experimental part:
The antineoplastic agent 33 (5 μM) was used as a reference. […] Compound 24 caused a disruption of the cell cycle of A-549 cancer cells, indicated by a shift from the predominant G0/G1 phase (Figure 8A) to the apoptotic sub-G1 phase as well as the G2/M phase (Figure 8B). A similar G2/M arrest could be observed for reference compound 33 (Figure 8C); however, MCT1 inhibitor 24 led to a larger fraction of cells into the sub-G1 phase, indicating induced apoptosis. This experiment discovered that compound 24 inhibits cell proliferation, causing cell cycle arrest and, eventually, apoptosis. To confirm our findings, we conducted an apoptosis assay using compound 24.
A standard PI staining procedure was used as described earlier[44]−[46] to determine the effect of compounds 24 and 33 on cell cycle progression, followed by flow cytometry analysis (FACS Aria SORP and FACS Aria Fusion, BD Biosciences, Franklin Lakes, NJ). In brief, A-549 cells were seeded onto a 6-well plate (250,000 cells/well) and incubated for 24 h at 37 °C under a 5% CO2-humidified atmosphere before being observed under a microscope. The cells were treated with compound 24 (5 μM) or 33 (5 μM) and further incubated for 24 h at 37 °C under a 5% CO2-humidified atmosphere. Then, the cells were harvested and washed twice with cold PBS (Genetix Biotech Asia, New Delhi, India) before being fixed overnight in ice-cold 70% (v/v) ethanol at 4 °C. The cells were again washed two times with PBS and subsequently resuspended with RNase (100 μg/mL; HiMedia, Mumbai, India) and their DNA was stained with PI (40 μg/mL; Sigma-Aldrich, Mumbai, India) before being incubated in the dark for 10 min. The DNA content was measured at the Indian Institute of Technology Bombay (IITB, Mumbai, India) by applying flow cytometry.

As for `COC(=O)/C(C#N)=C/c1cn(CC(=O)Nc2ccc(OC)cc2)c2ccccc12` [Compound 24, Methyl-2-cyano-3-(1-(2-((4-methoxyphenyl)amino)-2-oxoethyl)-1H-indol-3-yl) Acrylate], the “cells in G0/G1 phase” value was 38.1%, the “cells in G2/M phase” value is reported as 22.3%, the “cells in S phase” value was 18.0% and the “cells in Sub-G1 phase” value was 20.6%.

(Values after paper PMC9841531, “Indole Derivatives as New Structural Class of Potent and Antiproliferative Inhibitors of Monocarboxylate Transporter 1 (MCT1; SLC16A1)” (Journal of Medicinal Chemistry, 2022).)
